Data from patent US20240391896A1 (Nantong Jutai Biotech Co., Ltd., priority 2021, published 2024).
Read-outs that look alike come from different tables or passages of the source.

What was measured:
BCL9/β-catenin = target: T1, BCL9/β-catenin (Homo sapiens, UniProt P35222); experiment: FP (BCL-9 avidity) fluorescence polarization competition assay with beta-catenin and FAP-Bcl9 tracer; assay type: binding
T1 sequence (P35222 1-781): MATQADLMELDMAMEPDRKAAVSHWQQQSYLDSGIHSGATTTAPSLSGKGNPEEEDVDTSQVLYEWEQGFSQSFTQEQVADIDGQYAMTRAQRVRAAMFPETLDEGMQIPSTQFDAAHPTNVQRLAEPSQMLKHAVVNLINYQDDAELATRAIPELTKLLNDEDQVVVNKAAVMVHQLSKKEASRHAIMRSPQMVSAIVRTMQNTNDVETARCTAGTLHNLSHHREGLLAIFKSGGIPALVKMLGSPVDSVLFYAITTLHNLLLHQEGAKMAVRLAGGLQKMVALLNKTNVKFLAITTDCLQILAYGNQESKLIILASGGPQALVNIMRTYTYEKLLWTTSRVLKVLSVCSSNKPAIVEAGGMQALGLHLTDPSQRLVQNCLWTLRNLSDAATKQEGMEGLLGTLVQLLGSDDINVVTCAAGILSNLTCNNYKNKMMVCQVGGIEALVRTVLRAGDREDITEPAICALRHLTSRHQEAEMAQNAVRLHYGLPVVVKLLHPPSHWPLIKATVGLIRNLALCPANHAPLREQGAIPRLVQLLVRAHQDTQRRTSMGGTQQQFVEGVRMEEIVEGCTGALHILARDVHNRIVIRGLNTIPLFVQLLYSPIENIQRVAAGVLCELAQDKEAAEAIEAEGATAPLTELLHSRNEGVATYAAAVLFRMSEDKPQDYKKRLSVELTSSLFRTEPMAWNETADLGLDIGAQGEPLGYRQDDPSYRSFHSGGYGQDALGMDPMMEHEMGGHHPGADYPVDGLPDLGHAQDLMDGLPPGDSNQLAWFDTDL
Description: Incubating for 2 hours on a horizontal shaker. Then adding 2 nM FAP-Bcl9 tracer to each well, and after incubation for 2H on a horizontal shaker, measuring the […].

Human AXIN2 = experiment: qPCR of AXIN2 expression in HCT116 cells; assay type: cell-based; conditions: HCT-116, Table 2, HCT116 cells, AXIN2 vs β-actin, 24 hours
Description: Cells were digesting, counting, and plating cells in 24-well plates (flat bottom, clear), with 3×10^5 cells/500 ul DMEM (10% FBS) per well. • 2. Observing the state of cells on the next day, and start dosing after cell attachment is intact
Diluting 514 with DMEM (2% FBS) by gradient dilution with concentrations of 20 μM, 10 μM, 5 μM, 2.5 μM, 1.25 μM, 0.625 μM, 0.3125 μM, 0.15625 μM, 0 μM (equal volume DMSO)
Adding 500 μl of the above different concentrations of 514 to each well, and setting a single well for each concentration gradient except three repeat wells for the 0 μM concentration (double wells for qPCR). • 3. Incubating at 37° C. for 24 hours • 4. Discarding the supernatant, washing once with PBS, and adding trizol at 500/well • 5. RNA extraction (step omitted) • 6. Reverse transcription (step omitted, according to the kit) • 7. qPCR (step omitted, following the kit steps)
• 8. calculation of inhibition rate

HCT116 cells = experiment: CCK8 cell viability assay in HCT116 cells; assay type: cell-based; conditions: Homo sapiens, HCT-116; Table 2, HCT116 cells, 24 hours
Description: • 1. HCT116 cell plating
Digesting, counting, and plating the cells in 96-well plates (flat bottom, transparent) with 10,000 cells/100 ul DMEM (10% FBS) per well; • 2. Observing the state of cells on the next day, and start dosing after cell attachment is intact; • 3. diluting 514 with DMEM (2% FBS) by gradient dilution with concentrations of 20 μM, 10 μM, 5 μM, 2.5 μM, 1.25 μM, 0.625 μM, 0.3125 μM, 0.15625 μM, 0 μM (equal volume of DMSO); • 4. Adding 100 μl of the above different concentrations of 514 to each well, and making two repeat wells for each concentration gradient; leaving three blank wells (only adding DMEM 2% FBS culture medium without cells). • 5. Culturing at 37° C. for 24 hours; • 6. Adding 10 μl CCK-8 enhanced solution to each well: due to the small amount added of CCK-8 in each well, it may cause errors resulting from the reagent staining on the wall of the well. It is recommended to gently tap the culture plate after adding the reagent to help mixing; • 7. Incubating in the incubator for 0.5-4 hours: the amount of Formazan formed is not the same for different cell types, in most cases, incubation for 1 hour is enough. If the color development is not enough, incubation can be continued to determine optimal conditions. • 8. Measuring the absorbance at 450 nm and 600 nm (excluding the interference of the background color of the reagent and the absorbance value of the well plate itself); • 9. Using OD450 nm-OD600 nm for the final absorbance, and calculating the inhibition rate:
[formula] • As: absorbance of experimental wells (medium containing cells, CCK-8, drug to be tested); • Ac: absorbance of control wells (medium containing cells, CCK-8, and no drug to be tested); • Ab: absorbance of blank wells (medium without cells and drug to be tested, CCK-8). (3) qPCR • 1. HCT116 cell plating

[1] = Table 1.1, compounds 1-6, read-out: BCL-9 avidity FP IC50
[2] = Table 2, FP (BCL-9 affinity), read-out: FP
[3] = Table 1.2, compounds 7-16, read-out: BCL-9 avidity FP IC50
[4] = Table 1.3, compounds 15-20, read-out: BCL-9 avidity FP IC50

CC(C)(Oc1cccc(N2CC(C(=O)N(Cc3ccc(-c4c[nH]c5ncccc45)cc3)C3CC3)CC(c3ccccc3)C2)c1)C(=O)N1CCNCC1 (racemic) [Compound 3, N-cyclopropyl-1-(3-{[2-methyl-1-oxo-1-(piperazin-1-yl)propan-2-yl]oxy}phenyl)-5-phenyl-N-[(4-{1H-pyrrolo[2,3-b]pyridin-3-yl}phenyl)methyl]piperidine-3-carboxamide]
IC50 (BCL9/β-catenin; [1]): 2.76 µM
IC50 (BCL9/β-catenin; [2]): 2.76 µM
IC50 (Human AXIN2): 10 to 20 µM
IC50 (HCT116 cells): 10 to 20 µM

CC(C)(Oc1cccc(N2CCC[C@@H](C(=O)N(Cc3ccc(-c4cn[nH]c4)c(Cl)c3)C3CC3)C2)c1)C(=O)N1CCNCC1 [Compound 12, (3R)-N-{[3-chloro-4-(1H-pyrazol-4-yl)phenyl]methyl}-N-cyclopropyl-1-(3-{[2-methyl-1-oxo-1-(piperazin-1-yl)propan-2-yl]oxy}phenyl)piperidine-3-carboxamide]
IC50 (BCL9/β-catenin; [3]): > 10 µM
IC50 (BCL9/β-catenin; [2]): 10 to 20 µM
IC50 (Human AXIN2): 10 to 20 µM
IC50 (HCT116 cells): 10 to 50 µM

CC(C)(Oc1cccc(N2CCC[C@@H](C(=O)N(Cc3ccc(C4=CCCCC4)c(Cl)c3)C3CC3)C2)c1)C(=O)N1CCNCC1 [Compound 13, (3R)-N-{[3-chloro-4-(cyclohex-1-en-1-yl)phenyl]methyl}-N-cyclopropyl-1-(3-{[2-methyl-1-oxo-1-(piperazin-1-yl)propan-2-yl]oxy}phenyl)piperidine-3-carboxamide]
IC50 (BCL9/β-catenin; [2]): 10 to 50 µM
IC50 (Human AXIN2): 10 to 50 µM
IC50 (HCT116 cells): 10 to 50 µM

CC(C)(Oc1cccc(N2CC(C(=O)N(Cc3ccc(-c4cn[nH]c4)cc3)C3CC3)CC(C3CCCCC3)C2)c1)C(=O)N1CCNCC1 (centres unmarked) [Compound 1, 5-cyclohexyl-N-cyclopropyl-1-(3-{[2-methyl-1-oxo-1-(piperazin-1-yl)propan-2-yl]oxy}phenyl)-N-{[4-(1H-pyrazol-4-yl)phenyl]methyl}piperidine-3-carboxamide]
IC50 (BCL9/β-catenin; [1]): > 10 µM
IC50 (BCL9/β-catenin; [2]): 10 to 50 µM
IC50 (Human AXIN2): 10 to 50 µM
IC50 (HCT116 cells): 10 to 50 µM

CC(C)(Oc1ccc(Cl)c(N2CCC[C@@H](C(=O)N(Cc3ccc(-c4c[nH]c5ncccc45)cc3)C3CC3)C2)c1)C(=O)N1CCNCC1 [Compound 11, (3R)-1-(2-chloro-5-{[2-methyl-1-oxo-1-(piperazin-1-yl)propan-2-yl]oxy}phenyl)-N-cyclopropyl-N-[(4-{1H-pyrrolo[2,3-b]pyridin-3-yl}phenyl)methyl]piperidine-3-carboxamide]
IC50 (BCL9/β-catenin; [3]): 2.44 µM
IC50 (BCL9/β-catenin; [2]): 2.44 µM
IC50 (Human AXIN2): 10 to 20 µM
IC50 (HCT116 cells): 10 to 20 µM

CC(C)(Oc1ccc(Cl)c(N2CCC[C@@H](C(=O)N(Cc3ccc(C4=CCCCC4)cc3)C3CC3)C2)c1)C(=O)N1CCNCC1 [Compound 10, (3R)-1-(2-chloro-5-{[2-methyl-1-oxo-1-(piperazin-1-yl)propan-2-yl]oxy}phenyl)-N-{[4-(cyclohex-1-en-1-yl)phenyl]methyl}-N-cyclopropylpiperidine-3-carboxamide]
IC50 (BCL9/β-catenin; [3]): 2.7 µM
IC50 (BCL9/β-catenin; [2]): 2.7 µM
IC50 (Human AXIN2): 10 to 20 µM
IC50 (HCT116 cells): 10 to 20 µM

CC(C)(Oc1cccc(N2CC(C(=O)N(Cc3ccc(-c4cn[nH]c4)cc3)C3CC3)CC(c3ccccc3)C2)c1)C(=O)N1CCNCC1 (centres unmarked) [Compound 2, N-cyclopropyl-1-(3-{[2-methyl-1-oxo-1-(piperazin-1-yl)propan-2-yl]oxy}phenyl)-5-phenyl-N-{[4-(1H-pyrazol-4-yl)phenyl]methyl}piperidine-3-carboxamide]
IC50 (BCL9/β-catenin; [1]): > 10 µM
IC50 (BCL9/β-catenin; [2]): 10 to 50 µM
IC50 (Human AXIN2): 10 to 20 µM
IC50 (HCT116 cells): 10 to 50 µM

CC(C)(Oc1cccc(N2CC(C(=O)N(Cc3ccc(C4=CCCCC4)cc3)C3CC3)CC(c3ccccc3)C2)c1)C(=O)N1CCNCC1 (racemic) [Compound 6, N-{[4-(cyclohex-1-en-1-yl)phenyl]methyl}-N-cyclopropyl-1-(3-{[2-methyl-1-oxo-1-(piperazin-1-yl)propan-2-yl]oxy}phenyl)-5-phenylpiperidine-3-carboxamide]
IC50 (BCL9/β-catenin; [1]): 7.75 µM
IC50 (BCL9/β-catenin; [2]): 7.75 µM
IC50 (Human AXIN2): 10 to 20 µM
IC50 (HCT116 cells): 10 to 20 µM

CC(C)C1CC=C(c2ccc(CN(C(=O)C3CC(c4ccccc4)CN(c4cccc(OC(C)(C)C(=O)N5CCNCC5)c4)C3)C3CC3)cc2)CC1 (racemic) [Compound 4, N-cyclopropyl-1-(3-{[2-methyl-1-oxo-1-(piperazin-1-yl)propan-2-yl]oxy}phenyl)-5-phenyl-N-({4-[4-(propan-2-yl)cyclohex-1-en-1-yl]phenyl}methyl)piperidine-3-carboxamide]
IC50 (BCL9/β-catenin; [2]): 10 to 50 µM
IC50 (Human AXIN2): 10 to 50 µM
IC50 (HCT116 cells): 10 to 50 µM

CC(C)(Oc1ccc(Cl)c(N2CCC[C@@H](C(=O)N(Cc3ccc(-c4cn[nH]c4)cc3)C3CC3)C2)c1)C(=O)N1CCNCC1 [Compound 9]
IC50 (BCL9/β-catenin; [3]): > 10 µM
IC50 (BCL9/β-catenin; [2]): 10 to 20 µM
IC50 (Human AXIN2): 10 to 50 µM
IC50 (HCT116 cells): 10 to 50 µM

CC(C)(Oc1cccc(N2CCC[C@@H](C(=O)N(Cc3ccc(-c4c[nH]c5ncccc45)cc3)C3CC3)C2)c1Cl)C(=O)N1CCNCC1 [Compound 8, (3R)-1-(2-chloro-3-{[2-methyl-1-oxo-1-(piperazin-1-yl)propan-2-yl]oxy}phenyl)-N-cyclopropyl-N-[(4-{1H-pyrrolo[2,3-b]pyridin-3-yl}phenyl)methyl]piperidine-3-carboxamide]
IC50 (BCL9/β-catenin; [3]): > 10 µM
IC50 (BCL9/β-catenin; [2]): 10 to 50 µM
IC50 (Human AXIN2): 10 to 50 µM
IC50 (HCT116 cells): 10 to 20 µM

CC(C)(Oc1cccc(N2CCC[C@@H](C(=O)N(Cc3ccc(-c4ccccc4)c(Cl)c3)C3CC3)C2)c1)C(=O)N1CCNCC1 [Compound 14, (3R)-N-[(3-chloro-4-phenylphenyl)methyl]-N-cyclopropyl-1-(3-{[2-methyl-1-oxo-1-(piperazin-1-yl)propan-2-yl]oxy}phenyl)piperidine-3-carboxamide]
IC50 (BCL9/β-catenin; [2]): 10 to 50 µM
IC50 (Human AXIN2): 10 to 50 µM
IC50 (HCT116 cells): 10 to 50 µM

CC(C)(Oc1cccc(N2CCC[C@@H](NC(=O)N(Cc3ccc(-c4cn[nH]c4)cc3)C3CC3)C2)c1)C(=O)NCCN [Compound 18, N-(2-aminoethyl)-2-{3-[(3R)-3-{[cyclopropyl({[4-(1H-pyrazol-4-yl)phenyl]methyl})carbamoyl]amino}piperidin-1-yl]phenoxy}-2-methylpropanamide]
IC50 (BCL9/β-catenin; [4]): 10 to 20 µM
IC50 (BCL9/β-catenin; [2]): 10 to 20 µM
IC50 (Human AXIN2): 2.54 µM
IC50 (HCT116 cells): 3.46 µM

CN(c1cccc(N2CCC[C@@H](C(=O)N(Cc3ccc(-c4cn[nH]c4)cc3)C3CC3)C2)c1)C(C)(C)C(=O)N1CCNCC1 [Compound 16, (3R)-N-cyclopropyl-1-(3-{methyl[2-methyl-1-oxo-1-(piperazin-1-yl)propan-2-yl]amino}phenyl)-N-{[4-(1H-pyrazol-4-yl)phenyl]methyl}piperidine-3-carboxamid]
IC50 (BCL9/β-catenin; [4]): 10 to 20 µM
IC50 (BCL9/β-catenin; [2]): 10 to 20 µM
IC50 (Human AXIN2): 10 to 20 µM
IC50 (HCT116 cells): 2.79 µM
